The source of these data is patent EP0293500A1, “3-heteroalkyl-2,4.quinzaoline-diones” (AMERICAN CYANAMID COMPANY, priority 1987, dated 1988).

Broadly, the inhibition is the change of the read-out against control, counted positive when it falls. Low readings indicate little suppression, high ones strong suppression.

The target of experiment [1] is T1, thromboxane synthetase (Rattus norvegicus, UniProt P49430).
T1 construct: The platelets were isolated by centrifuging the PRP for 10 minutes at 1060xg; from tissue; host or cells: washed blood platelets from Okamoto-Aoki spontaneously hypertensive rats (SHR)
T1 sequence (P49430 1-533): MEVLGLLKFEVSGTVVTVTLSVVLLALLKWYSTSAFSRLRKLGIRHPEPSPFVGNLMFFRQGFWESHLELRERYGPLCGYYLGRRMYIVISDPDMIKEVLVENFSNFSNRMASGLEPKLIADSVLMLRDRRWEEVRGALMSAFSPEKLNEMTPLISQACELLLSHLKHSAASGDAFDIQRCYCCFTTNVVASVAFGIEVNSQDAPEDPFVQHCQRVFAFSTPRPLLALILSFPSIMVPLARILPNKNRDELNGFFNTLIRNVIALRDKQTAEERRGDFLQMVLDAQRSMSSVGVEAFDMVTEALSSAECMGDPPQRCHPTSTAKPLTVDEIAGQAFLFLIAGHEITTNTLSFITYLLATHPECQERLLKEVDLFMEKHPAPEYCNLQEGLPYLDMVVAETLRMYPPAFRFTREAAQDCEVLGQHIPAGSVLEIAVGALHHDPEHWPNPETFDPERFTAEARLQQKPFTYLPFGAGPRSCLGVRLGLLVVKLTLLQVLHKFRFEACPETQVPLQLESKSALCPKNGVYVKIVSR
The experiment in a line: Inhibition of thromboxane (TX) formation (TXB2 radioimmunoassay) in washed rat platelets. The format is cell-based, Okamoto-Aoki spontaneously hypertensive rats (SHR). The following applies: percent inhibition of TXB2 formation; drug at 10^-4M; SHR platelet suspension, 10 minutes at 37 C. The source says: The platelet rich plasma (PRP) was separated. […] The inhibition of thromboxane (TX) formation was studied by determing the concentration of thromboxane […] (TXB2), the stable hydrolysis product of TXA2.

Experiment [2] has as its system spontaneously hypertensive rats of the Okamoto strain. The experiment in a line: Hypotensive activity in spontaneously hypertensive rats (method of Chan and Poorvin). The format is in vivo. The following applies: male SHR, average MABP 160±1.5 mm of mercury; gavage, 100 mg/kg or less, second identical dose 24 hours later; MABP at 28 hours after the initial dose; number of rats in brackets. The protocol:
The novel compounds of the present invention are also active hypotensive agents and were tested for hypotensive activity by the method of P. S. Chan and b. Poorvin, Clinical and Experimental Hypertension, 1 (6), 817-830 (1979). Male, 16 week old, spontaneously hypertensive rats of the Okamoto strain, from Taconic Farms, Germantown, New York having an average mean arterial blood pressure of 160±1.5 mm of mercury were used in the test. […] A second identical dose of the test compound, without sodium chloride loading is given 24 hours later. At 28 hours after the initial dose, the mean arterial blood pressure (MABP) is measured by the method of Chan and Poorvin vide supra. The procedure is repeated in a second and third rat when necessary. The results of this test on representative compounds of the present invention appear in Table II below.

The structures appear in SMILES notation. Where a name gives a salt, the structure may show the parent alone.

For `CC(CCn1c(=O)[nH]c2ccc(Cl)cc2c1=O)n1ccnc1` (centres unmarked) [Example 30, 6-Chloro-3-[3-(1H-imidazol-1-yl)-butyl]-2,4(1H,3H)-quinazolinedione], testing at 100 µM in experiment [1] gave an inhibition of 98%. In experiment [2], the “MABP/mm Hg (no. of rats)” value is on record as 113(2) mm Hg.

In experiment [1], `CC(Cn1ccnc1)Cn1c(=O)[nH]c2ccc(Cl)cc2c1=O` (centres unmarked) [Example 31, 6-Chloro-3-[3-(1H-imidazol-1-yl)-2-methylpropyl]-2,4(1H,3H)-quinazolinedione] yielded an inhibition at 100 µM of 100%. Also, the “MABP/mm Hg (no. of rats)” value in experiment [2] was 126(3) mm Hg.

For the compound `O=c1[nH]c2cc(Cl)ccc2c(=O)n1CCCCn1ccnc1` [Example 40, 7-Chloro-3-[4-(1H-imidazol-1-yl)butyl]-2,4(1H,3H)-quinazolinedione], the inhibition at 100 µM in experiment [1] was found to be 59%. The “MABP/mm Hg (no. of rats)” value in experiment [2] was 102(2) mm Hg.

As to `CC(CCn1c(=O)[nH]c2cc(Cl)ccc2c1=O)n1ccnc1` (centres unmarked) [Example 41, 7-Chloro-3-[3-(1H-imidazol-1-yl)butyl]-2,4(1H,3H)-quinazolinedione], the inhibition at 100 µM in experiment [1] amounted to 51%. In addition, the “MABP/mm Hg (no. of rats)” value in experiment [2] is on record as 128(2) mm Hg.

`CC(Cn1ccnc1)Cn1c(=O)[nH]c2cc(Cl)ccc2c1=O` (centres unmarked) [Example 42, 7-Chloro-3-[3-(1H-imidazol-1-yl)-2-methylpropy]-2,4(1H,3H)-quinazolinedione] yielded an inhibition at 100 µM in experiment [1] of 75%. Moreover, in experiment [2], the “MABP/mm Hg (no. of rats)” value is listed as 121(2) mm Hg.

The compound `O=c1[nH]c2c(Cl)cccc2c(=O)n1CCCCn1ccnc1` [Example 43, 8-Chloro-3-[4-(1H-imidazol-1-yl)butyl]-2,4(1H,3H)-quinazolinedione] showed an inhibition at 100 µM in experiment [1] of 62%. In addition, the “MABP/mm Hg (no. of rats)” value in experiment [2] is listed as 85(2) mm Hg.

Consider `CC(CCn1c(=O)[nH]c2c(Cl)cccc2c1=O)n1ccnc1` (centres unmarked) [Example 44, 8-Chloro-3-[3-(1H-imidazol-1-yl)butyl]-2,4(1H,3H)-quinazolinedione], for which the inhibition at 100 µM in experiment [1] is 71%. Moreover, in experiment [2], the “MABP/mm Hg (no. of rats)” value is recorded as 112(2) mm Hg.

In turn, `O=c1c2ccccc2nnn1CCCCn1ccnc1` [Example 75, 3-[4-(1 H-Imidazol-1-yl)butyl]-1,2,3-benzotriazin-4(3H)-one] returned an inhibition at 100 µM in experiment [1] of 68%. Besides, the “MABP/mm Hg (no. of rats)” value in experiment [2] is on record as 114(2) mm Hg.

As for `O=c1c2cc(Cl)ccc2nnn1CCCn1ccnc1` [Example 76, 6-Chloro-3-[3-(1H-imidazol-1-yl)-propyl]-1,2,3-benzotriazin-4(3H)-one], the inhibition at 100 µM in experiment [1] worked out at 74%. In experiment [2], the “MABP/mm Hg (no. of rats)” value is recorded as 127(3) mm Hg.

In experiment [1], `Cl.O=c1c2cc(Br)ccc2nnn1CCCCn1ccnc1` [Example 82, 6-Bromo-3-[4-(1H-imidazol-1-yl)-butyl]-1,2,3-benzotriazin-4(3H)-one, monohydrochloride] yielded an inhibition at 100 µM of 96%. Also, the “MABP/mm Hg (no. of rats)” value in experiment [2] is recorded as 115(2) mm Hg.

Compound `Cc1ccc2nnn(CCCCn3ccnc3)c(=O)c2c1` [Example 84, 3-[4-(1H-Imidazol-1-yl)butyl]-6-methyl-1,2,3-benzotriazin-4(3H)-one] gave an inhibition at 100 µM in experiment [1] of 95%. Further, in experiment [2], the “MABP/mm Hg (no. of rats)” value is recorded as 106(2) mm Hg.

Compound `Cc1ccc2c(=O)n(CCCCn3ccnc3)nnc2c1C.Cl` [Example 86, 3-[4-(1H-Imidazol-1-yl)butyl]-7,8-dimethyl-1,2,3-benzotriazin-4(3H)-one, monohydrochloride] returned an inhibition at 100 µM in experiment [1] of 93%. In addition, the “MABP/mm Hg (no. of rats)” value in experiment [2] is 121(2) mm Hg.

Take `CC(Cn1ccnc1)Cn1nnc2ccc([N+](=O)[O-])cc2c1=O.O` (centres unmarked) [Example 87, 3-[3-(1H-Imidazol-1-yl)-2-methyl-propyl]-6-nitro-1,2,3-benzo-triazin-4(3H)-one, hydrate]: testing at 100 µM in experiment [1] gave an inhibition of 95%. In experiment [2], the “MABP/mm Hg (no. of rats)” value is 114(2) mm Hg.

`O=c1c2cc(Cl)ccc2nnn1CCCCCn1ccnc1` [Example 99, 6-Chloro-3-[5-(1H-imidazol-1-yl)pentyl]-1,2,3-benzotriazin-4(3H)-one] displayed an inhibition at 100 µM in experiment [1] of 82%. In addition, the “MABP/mm Hg (no. of rats)” value in experiment [2] is 117(2) mm Hg.

Turning to `O=c1c2cc(Cl)ccc2nnn1CCCCCCn1ccnc1` [Example 100, 6-Chloro-3-[6-(1H-imidazol-1-yl)hexyl]-1,2,3-benzotriazin-4(3H)-one], the inhibition at 100 µM in experiment [1] was 73%. The “MABP/mm Hg (no. of rats)” value in experiment [2] was 109(2) mm Hg.

As to `O=c1c2ccccc2nnn1CCCCCn1ccnc1` [Example 101, 3-[5-(1H-Imida-zol-1-yl)pentyl]-1,2,3-benzotria-zin-4(3H)-one, monohydrochloride], the inhibition at 100 µM in experiment [1] is 67%. The “MABP/mm Hg (no. of rats)” value in experiment [2] is given as 113(2) mm Hg.

The compound `O=c1c2ccccc2nnn1CCCCCCn1ccnc1` [Example 102, 3-[6-(1H-Imida-zol-1-yl)hexyl]-1,2,3-benzotria-zin-4(3H)-one, monohydrochloride] had an inhibition at 100 µM in experiment [1] of 96%. Further, the “MABP/mm Hg (no. of rats)” value in experiment [2] is 87(2) mm Hg.

In turn, `O=c1c2ccccc2ncn1CCCn1ccnc1` [Example 122, 3-[3-(1 H-Imidazol-1-yl)propyl]-4(3H)-quinazolinone] had an inhibition at 100 µM in experiment [1] of 51%. Further, the “MABP/mm Hg (no. of rats)” value in experiment [2] is reported as 139(2) mm Hg.

In experiment [1], `O=c1c2ccccc2ncn1CCCCn1ccnc1` [Example 123, 3-[4-(1H-Imidazol-1-yl)butyl]-4(3H)-quinazolinone, dihydro-chloride] came in with an inhibition at 100 µM of 83%. Further, the “MABP/mm Hg (no. of rats)” value in experiment [2] was 117(3) mm Hg.

For the compound `O=c1c2cc(Cl)ccc2ncn1CCCCn1ccnc1` [Example 124, 6-Chloro-3-[4-(1H-imidazol-1-yl)-butyl]-4(3H)-quinazolinone, dihydro-chloride], in experiment [1], 100 µM produced 99% inhibition. The “MABP/mm Hg (no. of rats)” value in experiment [2] is on record as 106(2) mm Hg.

With `O=c1c2cc(Br)ccc2ncn1CCCCn1ccnc1` [Example 125, 6-Bromo-3-[4-(1H-imidazol-1-yl)-butyl]-4(3H)-quinazolinone, dihydro-chloride], at 100 µM the inhibition in experiment [1] was 99%. Moreover, in experiment [2], the “MABP/mm Hg (no. of rats)” value was 121(2) mm Hg.

In experiment [1], `O=c1c2cc(Br)ccc2ncn1CCCn1ccnc1` [Example 126, 6-Bromo-3-[3-(1H-imidazol-1-yl)-propyl]-4(3H)-quinazolinone] yielded an inhibition at 100 µM of 99%. In experiment [2], the “MABP/mm Hg (no. of rats)” value is on record as 122(2) mm Hg.

In experiment [1], `Cc1ccc2ncn(CCC(C)n3ccnc3)c(=O)c2c1` (centres unmarked) [Example 127, 3-[3-(1H-Imidazol-1-yl)butyl]-6-methyl-4(3H)-quinazolinone] yielded an inhibition at 100 µM of 87%. In addition, in experiment [2], the “MABP/mm Hg (no. of rats)” value is listed as 133(4) mm Hg.

`CC(Cn1ccnc1)Cn1cnc2ccccc2c1=O.Cl.Cl` (centres unmarked) [Example 134, 3-[3-(1H-Imidazol-1-yl)-2-methylpropyl]-4(3H)-quinazolinone, dihydrochloride] came in with an inhibition at 100 µM in experiment [1] of 100%. In addition, in experiment [2], the “MABP/mm Hg (no. of rats)” value was 121(2) mm Hg.

Consider `O=c1c2cc(Cl)ccc2ncn1CCCn1ccnc1` [Example 138, 6-Chloro-[3-(1H-imidazol-1-yl)propyl]-4(3H)-quinazolinone], for which, in experiment [1], the inhibition at 100 µM was determined as 75%. In experiment [2], the “MABP/mm Hg (no. of rats)” value was 100(2) mm Hg.

For `Cc1cn(CCCn2cnc3ccc(Cl)cc3c2=O)cn1` [Example 139, 6-Chloro-3-[3-(4-methyl-1H-imidazol-1-yl)propyl]-4(3H)-quinazolinone], the inhibition at 100 µM in experiment [1] came out at 89%. The “MABP/mm Hg (no. of rats)” value in experiment [2] is 123(3) mm Hg.

In experiment [1], `CC(CCn1cnc2ccc(Cl)cc2c1=O)n1ccnc1` (centres unmarked) [Example 140, 6-Chloro-3-[3-(1H-Imidazol-1-yl)butyl]-4(3H)-quinazolinone] showed an inhibition at 100 µM of 100%. Further, the “MABP/mm Hg (no. of rats)” value in experiment [2] is 114(2) mm Hg.

Turning to `O=c1c2cc(Cl)ccc2ncn1CCCCCCCCn1ccnc1` [Example 143, 6-Chloro-3-[8-(1H-imidazol-1-yl)octyl]-4(3H)-quinazolinone], the inhibition at 100 µM in experiment [1] was 70%. Moreover, the “MABP/mm Hg (no. of rats)” value in experiment [2] was 118(2) mm Hg.
